Test results from article PMC12655551, “Design, Synthesis, and Evaluation of Pyrrole-Based Selective MAO-B Inhibitors with Additional AChE Inhibitory and Neuroprotective Properties Identified via Virtual Screening” (Pharmaceuticals, 2025).

Legend:
[1] = target: T1, recombinant human MAO-B (hMAOB) (Homo sapiens, UniProt P27338); test: biochemical; assay type: biochemical; conditions: for inhibition at 1 µM: 1 µM compound; for IC50 / MAO-B IC50: means ± SD of three experiments
T1 sequence (P27338 1-520): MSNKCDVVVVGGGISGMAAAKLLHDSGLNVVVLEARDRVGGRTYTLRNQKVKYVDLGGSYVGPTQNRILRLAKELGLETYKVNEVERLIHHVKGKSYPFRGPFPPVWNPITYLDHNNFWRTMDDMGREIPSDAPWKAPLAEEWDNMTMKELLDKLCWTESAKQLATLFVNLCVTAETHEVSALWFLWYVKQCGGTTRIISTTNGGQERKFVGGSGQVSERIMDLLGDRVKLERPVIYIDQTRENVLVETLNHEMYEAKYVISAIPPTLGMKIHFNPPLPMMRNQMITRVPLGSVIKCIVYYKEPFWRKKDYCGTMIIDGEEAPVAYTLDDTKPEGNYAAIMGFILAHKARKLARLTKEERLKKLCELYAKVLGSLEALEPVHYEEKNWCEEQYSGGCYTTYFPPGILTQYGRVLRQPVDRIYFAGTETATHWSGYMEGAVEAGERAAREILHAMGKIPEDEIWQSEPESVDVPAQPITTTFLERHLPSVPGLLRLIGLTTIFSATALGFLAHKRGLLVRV
Experimental: (§1) Monoamine oxidase (MAO) activity for both recombinant human MAO-A (hMAOA) and MAO-B (hMAOB) was assessed using a fluorometric assay based on the Amplex® UltraRed reagent. This method, originally reported by Bautista-Aguilera et al. and later adapted with minor changes by Kasabova-Angelova et al., detects hydrogen peroxide or peroxidase activity present in enzymes or biological samples. In this assay, Amplex® Red reacts in a 1:1 molar ratio with hydrogen peroxide in the presence of peroxidase, producing the red-fluorescent compound resorufin. Due to resorufin’s strong extinction coefficient (58,000 ± 5000 cm^−1·M^−1), measurements could be accurately taken using either fluorometric or spectrophotometric methods. […] The control conditions included the use of purified hMAOA or hMAOB in reaction buffer, enzyme solutions with hydrogen peroxide, and buffer alone. All the test compounds were initially prepared at a 1 µM final concentration. These compounds were combined with either hMAOA or hMAOB and loaded into a 96-well plate (with eight replicates per test compound), followed by incubation for 30 min at 37 °C in the dark. Subsequently, a 50 µL detection mix was added to each well. This mix contained Amplex® Red, horseradish peroxidase (HRP), and tyramine substrate, all prepared in a reaction buffer. As this enzymatic reaction proceeded continuously, the fluorescence signal was recorded every 30 min (at 0, 30, 60, 90, 120, and 150 min) to track enzymatic kinetics.

[2] = target: T2, recombinant human MAO-A (hMAOA) (Homo sapiens, UniProt P21397); test: MAO-A inhibition, fluorometric Amplex UltraRed assay; assay type: biochemical; conditions: for inhibition at 1 µM: 1 µM compound, read-out: Inhibition Activity 1 µM MAO-A; for IC50: means ± SD of three experiments, read-out: MAO-A IC50
T2 sequence (P21397 1-527): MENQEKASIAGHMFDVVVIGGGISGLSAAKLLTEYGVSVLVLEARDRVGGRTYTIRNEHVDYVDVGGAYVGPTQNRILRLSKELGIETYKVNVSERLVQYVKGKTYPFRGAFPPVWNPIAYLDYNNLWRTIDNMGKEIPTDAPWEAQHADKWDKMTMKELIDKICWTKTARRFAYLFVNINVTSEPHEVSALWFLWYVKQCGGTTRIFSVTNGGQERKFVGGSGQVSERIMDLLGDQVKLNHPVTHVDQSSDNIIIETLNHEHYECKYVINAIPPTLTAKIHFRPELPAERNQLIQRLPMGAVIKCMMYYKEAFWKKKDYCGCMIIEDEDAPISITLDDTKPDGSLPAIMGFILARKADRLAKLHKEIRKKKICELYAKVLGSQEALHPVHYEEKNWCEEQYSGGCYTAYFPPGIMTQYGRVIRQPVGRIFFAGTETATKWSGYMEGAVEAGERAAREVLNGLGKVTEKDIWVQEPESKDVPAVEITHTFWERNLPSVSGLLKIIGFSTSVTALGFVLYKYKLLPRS
Experimental: as §1

BChE = target: T3, BChE (Equus caballus, UniProt P81908); test: biochemical; conditions: for IC50: means ± SD of three experiments, read-out: BChE IC50; for inhibition at 200 µM: read-out: Inhibition Activity 200 µM BChE
T3 construct: purchased Sigma-Aldrich, Hamburg, Germany; host or cells: equine serum
T3 sequence (P81908 whole entry): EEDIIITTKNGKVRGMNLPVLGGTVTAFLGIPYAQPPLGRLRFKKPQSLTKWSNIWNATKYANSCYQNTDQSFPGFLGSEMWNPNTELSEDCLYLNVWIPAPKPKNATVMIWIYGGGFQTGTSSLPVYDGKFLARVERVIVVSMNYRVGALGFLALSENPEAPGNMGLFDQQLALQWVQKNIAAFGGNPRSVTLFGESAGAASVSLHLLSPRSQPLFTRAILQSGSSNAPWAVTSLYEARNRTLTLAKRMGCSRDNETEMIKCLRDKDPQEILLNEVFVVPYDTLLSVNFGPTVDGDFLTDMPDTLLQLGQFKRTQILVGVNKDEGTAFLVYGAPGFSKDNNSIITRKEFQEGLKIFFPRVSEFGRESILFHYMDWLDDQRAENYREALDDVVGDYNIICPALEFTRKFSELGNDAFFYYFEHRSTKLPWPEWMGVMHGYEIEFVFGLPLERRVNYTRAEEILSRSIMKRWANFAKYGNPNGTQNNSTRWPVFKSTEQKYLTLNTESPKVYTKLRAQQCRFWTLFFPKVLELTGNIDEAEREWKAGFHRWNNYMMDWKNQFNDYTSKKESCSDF
Experimental: (§2) AChE and BChE inhibitory activity of the newly synthesized pyrrole-based compounds was measured using the microplate assay described by Ellman et al. with the modifications added by López et al.. The compounds were tested at concentrations between 0.01 and 200 μM. First, they were dissolved in phosphate buffer (PBS) (8 mM K2HPO4, 2.3 mM NaH2PO4, 0.15 M NaCl, pH 7.5), assisted by the addition of no more than 5% MeOH. Then, they were serially diluted with PBS to provide the concentration range needed. Acetylcholinesterase from Electrophorus electricus and butyrylcholinesterase from equine serum (Sigma-Aldrich, Hamburg, Germany) were used with a substrate solution of 5,5′-dithiobis(2-nitrobenzoic acid) (DTNB) with acetylthiocholine iodide (ATCI) or butyrylthiocholine iodide (BTCI), respectively (0.04 M Na2HPO4, 0.2 mM DTNB, 0.24 mM ATCI or BTCI, pH 7.5). A total of 50 μL of AChE or BChE (0.25 U/mL, in PBS) and 50 μL of the tested compound solution were added to the wells. Incubation of the plates was performed at room temperature for 30 min. Then, 100 μL of substrate solution was added to start the enzymatic reaction. […] Enzyme activity was calculated as an inhibition percentage compared to an assay including buffer instead of an inhibitor.

AChE = target: T4, AChE (Electrophorus electricus, UniProt O42275); test: biochemical; assay type: biochemical; conditions: for inhibition at 200 µM: 200 µM compound; for IC50: means ± SD of three experiments
T4 construct: purchased Sigma-Aldrich, Hamburg, Germany
T4 sequence (O42275 24-633): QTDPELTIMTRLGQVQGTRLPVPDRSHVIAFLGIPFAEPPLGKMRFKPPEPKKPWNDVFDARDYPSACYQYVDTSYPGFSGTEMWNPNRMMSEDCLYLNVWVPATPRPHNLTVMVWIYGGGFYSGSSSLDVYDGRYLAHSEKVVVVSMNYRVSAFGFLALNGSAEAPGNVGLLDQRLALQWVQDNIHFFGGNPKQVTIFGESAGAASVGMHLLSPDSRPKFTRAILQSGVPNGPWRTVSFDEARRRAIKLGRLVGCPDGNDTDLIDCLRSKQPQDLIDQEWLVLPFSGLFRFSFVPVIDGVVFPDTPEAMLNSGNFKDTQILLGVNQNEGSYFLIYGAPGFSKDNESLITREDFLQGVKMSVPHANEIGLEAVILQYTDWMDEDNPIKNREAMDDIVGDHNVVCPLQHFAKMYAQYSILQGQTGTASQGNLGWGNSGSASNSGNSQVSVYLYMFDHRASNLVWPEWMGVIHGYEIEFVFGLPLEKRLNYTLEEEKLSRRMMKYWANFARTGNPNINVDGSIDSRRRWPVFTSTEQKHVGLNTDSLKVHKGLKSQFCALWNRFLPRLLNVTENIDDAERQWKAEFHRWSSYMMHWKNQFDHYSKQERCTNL
Experimental: as §2

Structure (SMILES)	inhibition at 1 µM [1] [%]	IC50 [1] [µM]	MAO-B IC50 [1]	inhibition at 1 µM [2] [%]	IC50 [2] [µM]	IC50 (BChE) [µM]	inhibition at 200 µM (BChE) [%]	inhibition at 200 µM (AChE) [%]	IC50 (AChE) [µM]
Cc1ccc(C)n1-c1ccncc1 [EM-DC-12, 4-(2,5-dimethyl-1H-pyrrol-1-yl)pyridine]	70 ± 7.1	0.51 ± 0.1	submicromolar range	70 ± 6.9	0.49 ± 0.1	72.8 ± 2.53	73.2 ± 1.8	65.7 ± 3.25	103 ± 5.85
Cc1ccc(C)n1-c1ccc(C(=O)O)cc1O [EM-DC-17, 4-(2,5-dimethyl-1H-pyrrol-1-yl)-3-hydroxybenzoic acid]	99 ± 7.1	> 100		99 ± 6.6	> 100	> 200	3.85 ± 2.99	0	> 200
CCC(C)Cn1c(C)ccc1C (stereo not drawn) [EM-DC-26, 2,5-dimethyl-1-(2-methylbutyl)-1H-pyrrole]	97 ± 7.1	> 100		97 ± 7.1	> 100	106.5 ± 0.7	68.2 ± 1.6	12.8 ± 3.54	> 200
Cc1ccc(C)n1C(CS)C(=O)O (stereo not drawn) [EM-DC-15, 2-(2,5-dimethyl-1H-pyrrol-1-yl)-3-sulfanylpropanoic acid]	70 ± 7.1	0.53 ± 0.1		70 ± 7.2	0.55 ± 0.1	> 200	19.1 ± 2.47	63.9 ± 1.29	131 ± 1.85
CCC(C(=O)O)n1c(C)ccc1C (stereo not drawn) [EM-DC-21, 2-(2,5-dimethyl-1H-pyrrol-1-yl)butanoic acid]	99 ± 7.1	> 100		99 ± 7.1	> 100	> 200	0	0	> 200
Cc1ccc(C)n1C(Cc1ccc(O)c(O)c1)C(=O)O (stereo not drawn) [EM-DC-23, 3-(3,4-dihydroxyphenyl)-2-(2,5-dimethyl-1H-pyrrol-1-yl)propanoicacid]	98 ± 7.1	> 100		98 ± 7.3	> 100	> 200	0	21.8 ± 2.14	> 200
Cc1ccc(C)n1CC(C)c1ccc(O)cc1 (stereo not drawn) [EM-DC-11, 4-[1-(2,5-dimethyl-1H-pyrrol-1-yl)propan-2-yl]phenol]	97 ± 7.1	> 100		97 ± 6.9	> 100	> 200	30.6 ± 2.11	29 ± 2.47	> 200
Cc1ccc(C)n1-c1ccc(C(=O)O)cc1 [EM-DC-2, 4-(2,5-dimethyl-1H-pyrrol-1-yl)benzoic acid]	75 ± 7.1			75 ± 6.9	0.43 ± 0.1	158 ± 11.8	57.2 ± 0.58	93.6 ± 4.66	0.75 ± 0.06
Cc1ccc(C)n1CCc1ccccc1 [EM-DC-7, 2,5-dimethyl-1-(2-phenylethyl)-1H-pyrrole]	75 ± 7.1	0.49 ± 0.1	submicromolar range	80 ± 7.2	0.51 ± 0.1	> 200	43.9 ± 1.7	11.9 ± 2.33	> 200
Cc1ccc(C)n1-c1ccccc1Br [EM-DC-3, 1-(2-bromophenyl)-2,5-dimethyl-1H-pyrrole]	75 ± 7.1	0.56 ± 0.1		70 ± 7.2	0.52 ± 0.1	> 200	0.04 ± 9.01	8.32 ± 2.64	> 200
